According to patent publication US20030092695A1, “Metal salts of 3-methyl-chromane or thiochromane derivatives” (priority 1999, published 2003):
Values after ≈ are worked out from the molar mass of the structure shown.

Legend:
[1] = tested on: increase in uterus weight by stimulus with estradiol; assay: Anti-estrogenic activity via oral administration (inhibition of estradiol-stimulated uterus weight increase); format: in vivo; conditions: ovariectomized ICR mice, 17β-estradiol-benzoate 0.1 μg/day s.c. for 3 days, 10 mg/kg p.o., once a day, in 5% arabic gum
Method: Oral anti-estrogenic activity in vivo of the test compound was determined according to the method described hereinafter.
In this experiment, the test compound or the control compound was suspended in 5% arabic gum solution and orally administered for 3 days, once a day. After 24 hours from the last administration, the test animal was sacrificed and uterus was removed and weighed.

[2] = Solubility test in FaSSIF or water, shaken at 37° C., filtrate measured by HPLC
Method: The degree of improvement in solubility was determined by measuring the solubility of the test compound as follows.
To 1 mg of each compound was added 2 ml of FaSSIF (artificial intestinal juice, bile) or water, which was then shaken at 37° C. After 1, 2 and 20 hours, 200 μm of sample was taken and filtered. The concentration of the filtrate was measured by HPLC and the results are described in the following Table 2.

[3] = FaSSIF, 37 °C, thermodynamic from solid

| solubility at 1 h [2, 3] [µg/mL] | solubility at 2 h [2, 3] [µg/mL] | solubility at 20 h [2, 3] [µg/mL] | Solubility in water (in words) ([2]; water as the solvent) | SMILES | Inhibition (%) of the increase in uterus weight by estradiol [1] [%] |
| --- | --- | --- | --- | --- | --- |
| – | – | – | – | C[C@@]1(c2ccc(O)cc2)CSc2cc(O)ccc2[C@@H]1CCCCCCCCC(CCCC(F)(F)C(F)(F)F)C(=O)[O-].[Na+] (mixture of isomers) [Example 1, Sodium (3′RS,4′RS)-10-[7-hydroxy-3-(4-hydroxyphenyl)-3-methylthiochroman-4-yl]-2-(4,4,5,5,5-pentafluoropentyl)decanoate] | 74 |
| – | – | – | – | CC1(c2ccc(O)cc2)CSc2cc(O)ccc2C1CCCCCCCCC(CCCC(F)(F)C(F)(F)F)C(=O)O (stereo not drawn) [(3′RS,4′RS)-10-[7-Hydroxy-3-(4-hydroxyphenyl)-3-methylthiochroman-4-yl]-2-(4,4,5,5,5-pentafluoropentyl)decanoic Acid] | 79 |
| 0.365 (≈ 0.602 µM) | 0.474 (≈ 0.781 µM) | 1.7 (≈ 2.8 µM) | can hardly be solved in water | C[C@]12CC[C@@H]3c4ccc(O)cc4C[C@@H](CCCCCCCCC[S+]([O-])CCCC(F)(F)C(F)(F)F)[C@H]3[C@@H]1CC[C@@H]2O (stereo partly shown) [ICI182,780] | 69 |
